In ChEMBL document CHEMBL5042526, “Design, Synthesis, and Biological Evaluation of Triazolone Derivatives as Potent PPARα/δ Dual Agonists for the Treatment of Nonalcoholic Steatohepatitis” (J Med Chem, 2022):

target: T1, Peroxisome proliferator-activated receptor gamma (Homo sapiens, UniProt P37231); assay: Agonist activity at PPARgamma (unknown origin); settings: not given
T1 sequence (P37231 whole entry): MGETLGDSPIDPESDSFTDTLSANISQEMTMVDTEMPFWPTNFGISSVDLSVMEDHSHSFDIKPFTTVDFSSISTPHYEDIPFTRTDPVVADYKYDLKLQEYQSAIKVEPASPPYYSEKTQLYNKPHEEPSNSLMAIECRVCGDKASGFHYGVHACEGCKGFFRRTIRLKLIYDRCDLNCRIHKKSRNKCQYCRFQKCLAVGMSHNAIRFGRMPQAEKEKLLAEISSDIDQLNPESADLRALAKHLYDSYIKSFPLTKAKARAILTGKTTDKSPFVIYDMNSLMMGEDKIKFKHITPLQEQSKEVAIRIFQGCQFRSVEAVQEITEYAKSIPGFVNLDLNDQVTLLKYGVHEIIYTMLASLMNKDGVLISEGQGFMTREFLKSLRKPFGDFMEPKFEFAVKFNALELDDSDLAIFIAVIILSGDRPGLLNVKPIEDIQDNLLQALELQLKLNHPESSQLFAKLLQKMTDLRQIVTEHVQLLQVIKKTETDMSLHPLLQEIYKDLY

Compared with `Cc1cc(Cc2cc(-c3ccc(Br)cc3)on2)cc(C)c1OC(C)(C)C(=O)O`, `Cc1cc(Cn2ncn(-c3ccc(C#N)cc3)c2=O)cc(C)c1OC(C)(C)C(=O)O` is higher in EC50: 2.75 µM for the first, greater than 5 µM for the second.

`CC(C)(Oc1ccc(Cn2ncn(-c3ccc(C(F)(F)F)cc3)c2=O)cc1F)C(=O)O` and `CC(C)(Oc1ccc(Cn2ncn(-c3ccc(OC(F)(F)F)cc3)c2=O)cc1F)C(=O)O` cannot be ordered by EC50: greater than 5 µM for the first, greater than 5 µM for the second.

`CC(C)(Oc1c(F)cc(Cn2ncn(-c3ccc(OC(F)(F)F)cc3)c2=O)cc1F)C(=O)O` and `CC(C)(Oc1c(F)cc(Cn2ncn(-c3ccc(C(F)(F)F)cc3)c2=O)cc1F)C(=O)O` cannot be ordered by EC50: greater than 5 µM for the first, greater than 5 µM for the second.

Compared with `Cc1cc(Cn2ncn(-c3ccccc3)c2=O)cc(C)c1OC(C)(C)C(=O)O`, `Cc1cc(Cn2ncn(-c3ccccc3C(F)(F)F)c2=O)cc(C)c1OC(C)(C)C(=O)O` is 4.4-fold higher in EC50: 0.865 µM for the first, 3.79 µM for the second. The first is the more potent here.

`CCOc1ccc(-n2cnn(Cc3cc(C)c(OC(C)(C)C(=O)O)c(C)c3)c2=O)cc1` and `Cc1cc(Cn2ncn(-c3ccc(S(C)(=O)=O)cc3)c2=O)cc(C)c1OC(C)(C)C(=O)O` cannot be ordered by EC50: greater than 5 µM for the first, greater than 5 µM for the second.

`CC(C)(Oc1ccc(Cn2ncn(-c3ccc(OC(F)(F)F)cc3)c2=O)cc1)C(=O)O` and `CC(C)(Oc1ccc(Cn2ncn(-c3ccc(C(F)(F)F)cc3)c2=O)cc1)C(=O)O` cannot be ordered by EC50: greater than 5 µM for the first, greater than 5 µM for the second.

`Cc1cc(-n2ncn(-c3ccc(C(F)(F)F)cc3)c2=O)cc(C)c1OC(C)(C)C(=O)O` and `Cc1cc(OCn2ncn(-c3ccc(C(F)(F)F)cc3)c2=O)cc(C)c1OC(C)(C)C(=O)O` cannot be ordered by EC50: greater than 5 µM for the first, greater than 5 µM for the second.

Compared with `CC(C)(Oc1c(Cl)cc(Cn2ncn(-c3ccc(OC(F)(F)F)cc3)c2=O)cc1Cl)C(=O)O`, `CCc1cc(Cn2ncn(-c3ccc(OC(F)(F)F)cc3)c2=O)cc(CC)c1OC(C)(C)C(=O)O` is lower in EC50: greater than 5 µM for the first, 3.09 µM for the second.

First: Cc1cc(CCCn2ncn(-c3ccc(C(F)(F)F)cc3)c2=O)cc(C)c1OC(C)(C)C(=O)O
Second: O=C(O)CCCc1cc2cc(Cl)ccc2n1S(=O)(=O)c1ccc2ncsc2c1 [LANIFIBRANOR]
The EC50 of the first is higher: greater than 5 µM for the first, 0.559 µM for the second.

target: T2, Peroxisome proliferator-activated receptor delta (Homo sapiens, UniProt Q03181); assay: Agonist activity at PPARdelta (unknown origin); settings: not given
T2 sequence (Q03181 whole entry): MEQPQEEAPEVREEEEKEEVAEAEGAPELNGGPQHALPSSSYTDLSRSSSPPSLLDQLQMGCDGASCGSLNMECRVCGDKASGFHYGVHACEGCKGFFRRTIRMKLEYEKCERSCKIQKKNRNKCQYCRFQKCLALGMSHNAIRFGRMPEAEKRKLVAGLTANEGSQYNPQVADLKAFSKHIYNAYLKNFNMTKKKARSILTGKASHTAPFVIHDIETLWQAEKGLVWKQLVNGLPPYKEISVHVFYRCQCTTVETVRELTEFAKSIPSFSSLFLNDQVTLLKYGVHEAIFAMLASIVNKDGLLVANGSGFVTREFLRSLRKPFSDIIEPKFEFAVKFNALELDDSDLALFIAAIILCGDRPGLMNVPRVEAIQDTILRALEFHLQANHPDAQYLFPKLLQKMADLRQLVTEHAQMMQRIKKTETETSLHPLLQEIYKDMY

Going from `Cc1cc(Cc2cc(-c3ccc(Br)cc3)on2)cc(C)c1OC(C)(C)C(=O)O` to `Cc1cc(Cn2ncn(-c3ccc(C#N)cc3)c2=O)cc(C)c1OC(C)(C)C(=O)O`, the EC50 rises from 0.0242 µM to greater than 5 µM.

`Cc1cc(Cn2ncn(-c3ccc(S(C)(=O)=O)cc3)c2=O)cc(C)c1OC(C)(C)C(=O)O` and `Cc1cc(Cn2ncn(-c3ccccc3C(F)(F)F)c2=O)cc(C)c1OC(C)(C)C(=O)O` cannot be ordered by EC50: greater than 5 µM for the first, greater than 5 µM for the second.

Compared with `Cc1cc(-n2ncn(-c3ccc(C(F)(F)F)cc3)c2=O)cc(C)c1OC(C)(C)C(=O)O`, `O=C(O)CCCc1cc2cc(Cl)ccc2n1S(=O)(=O)c1ccc2ncsc2c1` [LANIFIBRANOR] is lower in EC50: greater than 5 µM for the first, 2.96 µM for the second.

target: T3, Peroxisome proliferator-activated receptor alpha (Homo sapiens) (UniProt Q07869); settings: filed as agonist, dose 10.0 nM
T3 sequence (whole entry): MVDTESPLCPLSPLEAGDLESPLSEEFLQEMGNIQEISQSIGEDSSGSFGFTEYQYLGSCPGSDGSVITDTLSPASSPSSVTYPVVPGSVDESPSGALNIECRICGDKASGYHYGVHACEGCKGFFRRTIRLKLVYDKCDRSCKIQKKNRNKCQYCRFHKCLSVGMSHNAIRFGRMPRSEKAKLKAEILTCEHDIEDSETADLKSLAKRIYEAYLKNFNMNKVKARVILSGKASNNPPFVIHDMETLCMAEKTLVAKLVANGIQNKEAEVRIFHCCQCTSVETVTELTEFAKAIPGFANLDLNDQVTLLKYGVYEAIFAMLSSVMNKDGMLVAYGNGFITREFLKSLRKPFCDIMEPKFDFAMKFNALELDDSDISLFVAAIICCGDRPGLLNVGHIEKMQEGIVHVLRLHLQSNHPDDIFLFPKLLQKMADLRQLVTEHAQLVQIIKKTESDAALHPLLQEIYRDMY
Description: Agonist activity at PPARalpha (unknown origin) assessed as maximal activation at 10 nM relative to GW7647

First: CC(C)(Oc1ccc(Cn2ncn(-c3ccc(C(F)(F)F)cc3)c2=O)cc1F)C(=O)O
Second: CC(C)(Oc1ccc(Cn2ncn(-c3ccc(OC(F)(F)F)cc3)c2=O)cc1F)C(=O)O
The Emax of the first is higher: 136% for the first, 102% for the second.

Compared with `CC(C)(Oc1c(F)cc(Cn2ncn(-c3ccc(OC(F)(F)F)cc3)c2=O)cc1F)C(=O)O`, `CC(C)(Oc1c(Cl)cc(Cn2ncn(-c3ccc(OC(F)(F)F)cc3)c2=O)cc1Cl)C(=O)O` is higher in Emax: 99% for the first, 153% for the second.

First: CCOc1ccc(-n2cnn(Cc3cc(C)c(OC(C)(C)C(=O)O)c(C)c3)c2=O)cc1
Second: Cc1cc(OCn2ncn(-c3ccc(C(F)(F)F)cc3)c2=O)cc(C)c1OC(C)(C)C(=O)O
The Emax of the first is higher: 79% for the first, 69% for the second.

Compared with `CC(C)(Oc1ccc(Cn2ncn(-c3ccc(OC(F)(F)F)cc3)c2=O)cc1)C(=O)O`, `CCc1cc(Cn2ncn(-c3ccc(OC(F)(F)F)cc3)c2=O)cc(CC)c1OC(C)(C)C(=O)O` is higher in Emax: 109% for the first, 129% for the second.

For `Cc1cc(CCCn2ncn(-c3ccc(C(F)(F)F)cc3)c2=O)cc(C)c1OC(C)(C)C(=O)O`, the Emax was 78%.

target: T4, Peroxisome proliferator-activated receptor gamma (Homo sapiens) (UniProt P37231); settings: filed as agonist, dose 10.0 nM
T4 sequence (whole entry): T1 sequence (P37231 whole entry)

Going from `Cc1cc(Cn2ncn(-c3ccccc3C(F)(F)F)c2=O)cc(C)c1OC(C)(C)C(=O)O` to `CCc1cc(Cn2ncn(-c3ccc(OC(F)(F)F)cc3)c2=O)cc(CC)c1OC(C)(C)C(=O)O`, the Emax rises from 84% to 125%.

target: T5, Peroxisome proliferator-activated receptor delta (Homo sapiens) (UniProt Q03181); settings: filed as agonist, dose 10.0 nM
T5 sequence (whole entry): T2 sequence (Q03181 whole entry)

Compared with `CC(C)(Oc1ccc(Cn2ncn(-c3ccc(C(F)(F)F)cc3)c2=O)cc1F)C(=O)O`, `CC(C)(Oc1ccc(Cn2ncn(-c3ccc(OC(F)(F)F)cc3)c2=O)cc1F)C(=O)O` is lower in Emax: 118% for the first, 105% for the second.

First: CC(C)(Oc1c(F)cc(Cn2ncn(-c3ccc(OC(F)(F)F)cc3)c2=O)cc1F)C(=O)O
Second: CC(C)(Oc1c(Cl)cc(Cn2ncn(-c3ccc(OC(F)(F)F)cc3)c2=O)cc1Cl)C(=O)O
The Emax of the first is lower: 113% for the first, 118% for the second.

First: CCOc1ccc(-n2cnn(Cc3cc(C)c(OC(C)(C)C(=O)O)c(C)c3)c2=O)cc1
Second: Cc1cc(OCn2ncn(-c3ccc(C(F)(F)F)cc3)c2=O)cc(C)c1OC(C)(C)C(=O)O
The Emax of the first is higher: 81% for the first, 72% for the second.

Going from `CC(C)(Oc1ccc(Cn2ncn(-c3ccc(OC(F)(F)F)cc3)c2=O)cc1)C(=O)O` to `CCc1cc(Cn2ncn(-c3ccc(OC(F)(F)F)cc3)c2=O)cc(CC)c1OC(C)(C)C(=O)O`, the Emax rises from 71% to 74%.

`Cc1cc(CCCn2ncn(-c3ccc(C(F)(F)F)cc3)c2=O)cc(C)c1OC(C)(C)C(=O)O` gave an Emax of 72%.

target: T3, Peroxisome proliferator-activated receptor alpha (Homo sapiens); assay: Agonist activity at PPARalpha (unknown origin) assessed as maximal activation at 10 nM relative to control; settings: filed as agonist

First: Cc1cc(Cc2cc(-c3ccc(Br)cc3)on2)cc(C)c1OC(C)(C)C(=O)O
Second: O=C(O)CCCc1cc2cc(Cl)ccc2n1S(=O)(=O)c1ccc2ncsc2c1 [LANIFIBRANOR]
The Emax of the first is higher: 135% for the first, 65% for the second.

target: T4, Peroxisome proliferator-activated receptor gamma (Homo sapiens); assay: Agonist activity at PPARgamma (unknown origin) assessed as maximal activation at 10 nM relative to control; settings: filed as agonist

Going from `Cc1cc(Cc2cc(-c3ccc(Br)cc3)on2)cc(C)c1OC(C)(C)C(=O)O` to `O=C(O)CCCc1cc2cc(Cl)ccc2n1S(=O)(=O)c1ccc2ncsc2c1` [LANIFIBRANOR], the Emax rises from 118% to 119%.

target: T6, Peroxisome proliferator-activated receptor alpha (Homo sapiens, UniProt Q07869); assay: Agonist activity at PPARalpha (unknown origin); settings: not given
T6 sequence (Q07869 whole entry): T3 sequence (whole entry)

First: Cc1cc(Cc2cc(-c3ccc(Br)cc3)on2)cc(C)c1OC(C)(C)C(=O)O
Second: Cc1cc(Cn2ncn(-c3ccc(C#N)cc3)c2=O)cc(C)c1OC(C)(C)C(=O)O
The EC50 of the first is lower: 0.0651 µM for the first, greater than 5 µM for the second. The first is the more potent here.

`CCOc1ccc(-n2cnn(Cc3cc(C)c(OC(C)(C)C(=O)O)c(C)c3)c2=O)cc1` and `CCc1cc(Cn2ncn(-c3ccc(OC(F)(F)F)cc3)c2=O)cc(CC)c1OC(C)(C)C(=O)O` are within 1.5-fold of each other in EC50: 0.0326 µM for the first, 0.0444 µM for the second.

`Cc1cc(-n2ncn(-c3ccc(C(F)(F)F)cc3)c2=O)cc(C)c1OC(C)(C)C(=O)O` and `Cc1cc(Cn2ncn(-c3ccccc3C(F)(F)F)c2=O)cc(C)c1OC(C)(C)C(=O)O` cannot be ordered by EC50: greater than 5 µM for the first, greater than 5 µM for the second.

Compared with `CC(C)(Oc1c(Cl)cc(Cn2ncn(-c3ccc(OC(F)(F)F)cc3)c2=O)cc1Cl)C(=O)O`, `O=C(O)CCCc1cc2cc(Cl)ccc2n1S(=O)(=O)c1ccc2ncsc2c1` [LANIFIBRANOR] is 450-fold higher in EC50: 0.0068 µM for the first, 3.06 µM for the second. The first is the more potent here.

target: T5, Peroxisome proliferator-activated receptor delta (Homo sapiens); assay: Agonist activity at PPARdelta (unknown origin) assessed as maximal activation at 10 nM relative to control; settings: filed as agonist

First: Cc1cc(Cc2cc(-c3ccc(Br)cc3)on2)cc(C)c1OC(C)(C)C(=O)O
Second: O=C(O)CCCc1cc2cc(Cl)ccc2n1S(=O)(=O)c1ccc2ncsc2c1 [LANIFIBRANOR]
The Emax of the first is lower: 75% for the first, 89% for the second.
